Test [1] addresses T1, recombinant SAMHD1 (Homo sapiens, UniProt Q9Y3Z3).
T1 construct: His-tag (N); made in house; host or cells: E. coli BL21 (DE3)
Nature of the test: Dynamic light scattering (DLS), SAMHD1 particle size. To be noted: 1 mM compound, 1 mM GTP.
Description: SAMHD1 particle size distribution was determined using a Malvern ZETASIZER (Ultra) (Malvern Instruments). […] Raw intensity-weighted data were converted to volume distribution by built-in algorithms to mitigate the impact of aggregated protein species.

Test [2] concerns the target T1, recombinant SAMHD1. Nature of the test: In vitro chemical crosslinking (glutaraldehyde), SAMHD1 multimers. The following applies: 1.875 mM glutaraldehyde, GTP 0-5 mM.
Test [3] relates to recombinant MTH1, dCTPase, dUTPase, ITPase, NUDT5, NUDT12, NUDT15 and NUDT22. The test is described as follows: Compound selectivity, enzyme-coupled MG assays against panel of nucleoside pyro-/tri-phosphatases. Type of test: biochemical, human. To be noted: assayed up to 100 μM.
Test [4] concerns the target T1, recombinant SAMHD1. Nature of the test: Differential scanning fluorometry (DSF). Type of test: binding. To be noted: for Effect on SAMHD1 thermal stability / Tm1: absence of nucleotides, up to 200 μM (0.2–[…]); for Effect on GTP-induced SAMHD1 dimerization (Tm1 transition): order-of-addition, 0.1 mM TH6342, 0.5 mM TH7127 pre-incubated before low GTP, TH7126 before or after GTP.
Description: The assay mixture was then subject to a 20-85/90°C temperature gradient for 20 min, with the fluorescence intensities (RFU) measured every second using a LightCycler 480 Instrument II (Roche Life Science). […] Melting temperatures (Tm) were identified by the minima of the negative first derivative (-dRFU/dT) of fluorescence intensity (LightCycler 480 Software).

The subject of the next test is T2, SAMHD1^Y146S/Y154S.
T2 construct: expressed in transfected cells; host or cells: SAMHD1-/- THP-1 cell clone
Nature of the test: CETSA using lysates of SAMHD1−/− THP-1 cells with rescue expression of dimerization-defective variant. Format: binding, Human. The following applies: versus DMSO, full melt curves, 100 μM.

Test [5] relates to T3, cellular SAMHD1 in THP-1 cell lysate.
T3 construct: lysate from THP-1 cells expressing endogenous wild-type SAMHD1; endogenous in cells; host or cells: THP-1
The test is described as follows: Drug affinity responsive target stability (DARTS) on THP-1 cell lysates. Type of test: binding, Human. The following applies: 100 μM compound or 5 mM dGTP.
Description: Lysates were then clarified by centrifugation at 16000 x g for 10 min at 4°C. Protein concentrations of the clarified lysates were subsequently determined by Pierce™ Coomassie plus (Bradford) assay reagent (Thermo Scientific), and samples were diluted in 1x TN buffer (50 mM Tris-HCl pH 8.0, 50 mM NaCl) to a total protein concentration of 1 mg/mL. […] Digestion was stopped by the addition of 4x Laemmli sample buffer (Bio-Rad) supplemented with 100 mM DTT and heating at 95°C for 5 min.

The test system of test [6] is T4, wild-type SAMHD1 in THP-1 cell lysates.
T4 construct: lysate from THP-1 cells expressing endogenous wild-type SAMHD1; endogenous in cells; host or cells: THP-1
The test is described as follows: CETSA using THP-1 cell lysates, wild-type SAMHD1. Format: binding, Human.
Description: (§1) Samples were subsequently rested at RT for 3 min, supplemented with 40 μL sample buffer (50 mM HEPES pH 7.5, 5 mM β-glycerophosphate, 0.1 mM Na3VO4, 10 mM MgCl2, 2 mM TCEP, 1X cOmplete, Mini, EDTA-free protease inhibitor cocktail), and then lysed through three freeze-thaw cycles with alternating ethanol/dry ice and 37°C water bath. Finally, lysates were clarified by centrifugation at 17,000g for 20 min and then analysed by Western blot. […] Following heating, samples were rested at RT for 3 min, clarified by centrifugation, and finally analysed by Western blot. Protein band intensities were normalised to that of the thermally stable loading control SOD-1, and were curve-fitted via a Boltzmann sigmoidal model (GraphPad Prism) to determine Tagg.

Test [7] concerns the target T1, recombinant SAMHD1. The test is described as follows: B4NPP direct SAMHD1 enzymatic assay. The following applies: for Inhibition of SAMHD1 activity against B4NPP (in words): 2 mM B4NPP. Format: biochemical.
In test [8] the target is T1, recombinant SAMHD1. Nature of the test: Enzyme-coupled malachite green assay, SAMHD1 in vitro activity (dGTP, ara-CTP, Cl-F-ara-ATP substrates). Type of test: biochemical.
Test [9] concerns the target T1, recombinant SAMHD1. Nature of the test: Kinetic study, enzyme-coupled MG assay with matrix of inhibitors and dGTP. Format: biochemical. To be noted: inhibitor 0.03-20 μM added before dGTP 6.25-200 μM.
Description: The reactions are performed on 384-well plates with a final volume of 20 μl and DMSO level controlled at 1%, where all reagents are dispensed using a D300e Digital Dispenser (Tecan). […] Following 20 min incubation at RT, the reaction was then quenched by EDTA, Subsequently, the malachite green reagent was added at 10 μl/well, and upon incubation at RT for 20 min, [MUT] was read in a Hidex Sense microplate reader. Standard curves of inorganic sodium phosphate were constructed to determine amount of phosphate released, and subsequently used to determine reaction kinetics (GraphPad Prism).
Test [10] concerns T5, cellular SAMHD1 in intact THP-1 cells.
T5 construct: lysate from THP-1 cells expressing endogenous wild-type SAMHD1; endogenous in cells; host or cells: THP-1
The test is described as follows: CETSA using intact THP-1 cells. Format: cell-based, Human. To be noted: 100 μM inhibitors or 10 mM thymidine, 2 h; isothermal at 53°C for inhibitors.
Description: as §1

Setting [11] is: substrate Cl-F-ara-ATP 50 μM with GTP 12.5 μM as activator, read-out: IC50 (μM) Cl-F-ara-ATP.
Where [12] appears, read: substrate ara-CTP 200 μM with dGTPαS 3.125 μM as activator, read-out: IC50 (μM) araCTP.
Where [13] appears, read: substrate dGTP 25 μM, read-out: IC50 (μM) dGTP.

Entries after “also recorded” stand apart in the source; their conditions may differ. Read-outs that look alike come from different tables or passages of the source. Where only a bound is given, the exact number is not on record here.

What is called IC50 is the midpoint of a concentration-inhibition curve. By Ki is commonly meant a measure of affinity in units of concentration, obtained from inhibition or displacement.

T1 sequence (Q9Y3Z3 whole entry): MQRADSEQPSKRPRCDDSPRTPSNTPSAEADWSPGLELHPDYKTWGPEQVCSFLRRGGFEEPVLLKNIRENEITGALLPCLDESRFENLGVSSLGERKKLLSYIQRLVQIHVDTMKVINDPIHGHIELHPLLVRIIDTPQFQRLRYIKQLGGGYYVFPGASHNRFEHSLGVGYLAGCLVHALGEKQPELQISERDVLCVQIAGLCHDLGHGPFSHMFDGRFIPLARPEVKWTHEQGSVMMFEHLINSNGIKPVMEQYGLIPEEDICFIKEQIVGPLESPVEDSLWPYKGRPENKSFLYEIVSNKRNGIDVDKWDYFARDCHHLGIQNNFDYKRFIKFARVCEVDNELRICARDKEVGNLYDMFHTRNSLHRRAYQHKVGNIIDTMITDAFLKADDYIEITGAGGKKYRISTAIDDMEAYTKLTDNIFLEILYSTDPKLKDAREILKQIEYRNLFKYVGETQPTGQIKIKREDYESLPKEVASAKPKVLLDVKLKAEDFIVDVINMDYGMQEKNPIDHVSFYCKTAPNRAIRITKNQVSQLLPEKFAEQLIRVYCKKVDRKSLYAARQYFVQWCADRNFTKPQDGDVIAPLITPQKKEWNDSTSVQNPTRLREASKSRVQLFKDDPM

As to `Clc1ccccc1-c1cn2ccnc2c(NCCc2ccccn2)n1` [TH6342, 6-(2-chlorophenyl)-N-(2-(pyridin-2-yl)ethyl)imidazo[1,2-a]pyrazin-8-amine], the “Effect on GTP-induced SAMHD1 dimerization (DLS)” value on recombinant SAMHD1 [1] is reported as “deterred GTP (1 mM)-induced SAMHD1 dimerization”. Also, on recombinant SAMHD1 [2], the “Effect on GTP-induced SAMHD1 multimerization (crosslinking)” value is on record as “deterred GTP-induced SAMHD1 multimerization”. Further, the “Selectivity for SAMHD1 versus panel of nucleotide phosphatases” value (from here on “Selectivity for SAMHD1 versus panel”) in [3] is reported as “selectively inhibited SAMHD1”. At recombinant SAMHD1 [4] (0.5 mM compound added after GTP at 5 mM or dGTPαS at 1 mM), the “Effect on thermal stability of nucleotide-bound SAMHD1” value is recorded as “mildly destabilized GTP-bound, but not dGTPαS-bound, SAMHD1 species”. In addition, the “Effect on SAMHD1 thermal stability / Tm1” value at recombinant SAMHD1 [4] is on record as “small concentration-dependent reduction in Tm1”. The “Effect on GTP-induced SAMHD1 dimerization (Tm1 transition)” value (from here on “Effect … (Tm1 transition)”) on recombinant SAMHD1 [4] is recorded as “the allosteric activator was not able to fully remove the Tm1 transition”. The “Increase of aggregation temperature (Tagg)” value with SAMHD1^Y146S/Y154S was approximately 1 °C. Moreover, in [5], the “SAMHD1 stability to pronase treatment” value is on record as “Neither TH6342 nor TH7127 in cell lysates altered SAMHD1 stability to pronase treatment”. In test [6] (Figure 7F, SAMHD1 Tagg summary, wild-type SAMHD1 lysate, 100 μM compound, DMSO 44.8 ± 0.6), the “Aggregation temperature (Tagg) ± SE (°C)” value came to 46.1 ± 0.4 °C. For the same compound, on recombinant SAMHD1 [7] (Mn2+), the “Inhibition of SAMHD1 activity against B4NPP (in words)” value (“Inhibition of SAMHD1 activity” below) is listed as “retained their inhibitory activities”. For the same compound, the values for the IC50 on recombinant SAMHD1 [8] (setting [11]), on recombinant SAMHD1 [8] (setting [12]) and on recombinant SAMHD1 [8] (setting [13]) were 5.8 µM, 11 µM and 9.1 µM, respectively. In addition, the “Effect on reaction kinetics / Hill coefficient (Hn)” value at recombinant SAMHD1 [9] is given as “significantly increased hill coefficients”.
Turning to `Nc1nc2c(ncn2[C@H]2C[C@H](O)[C@@H](COP(=O)(O)OP(=O)(O)OP(=O)(O)O)O2)c(=O)[nH]1` [dGTP, reference compound], the “SAMHD1 stability to pronase treatment” value in [5] is listed as “substantially stabilized SAMHD1”. In test [6] (100 μM inhibitors or 5 mM dGTP, isothermal at 45°C for inhibitors), the “SAMHD1 stabilization against heat, cell lysate” value is reported as “substantially stabilized SAMHD1”.
On to `COc1ccccc1-c1cn2ccnc2c(NCCc2ccccn2)n1` [TH7127, 6-(2-methoxyphenyl)-N-(2-(pyridin-2-yl)ethyl)imidazo[1,2-a]pyrazin-8-amine], for which, in test [3], the “Selectivity for SAMHD1 versus panel” value is “selectively inhibited SAMHD1”. In addition, the “Effect on SAMHD1 thermal stability / Tm1” value at recombinant SAMHD1 [4] is reported as “small concentration-dependent reduction in Tm1”. For the same compound, the “Effect … (Tm1 transition)” value at recombinant SAMHD1 [4] is reported as “the allosteric activator was not able to fully remove the Tm1 transition”. Besides, the “SAMHD1 stability to pronase treatment” value in [5] is on record as “Neither TH6342 nor TH7127 in cell lysates altered SAMHD1 stability to pronase treatment”. For the same compound, the “Inhibition of SAMHD1 activity” value at recombinant SAMHD1 [7] (Mn2+) is given as “retained their inhibitory activities”. In addition, on recombinant SAMHD1 [7] (B4NPP substrate, Mn2+, global fit, mixed inhibition model), the Ki was found to be 20.1 µM. In addition, the Mode of inhibition result at recombinant SAMHD1 [7] (B4NPP substrate, global fitting) is “mixed mode of inhibition”. The “alpha (α)” value on recombinant SAMHD1 [7] (B4NPP substrate, global fit, mixed inhibition model) amounted to 0.36. Also, the figures for the IC50 at recombinant SAMHD1 [8] (setting [11]), on recombinant SAMHD1 [8] (setting [12]) and on recombinant SAMHD1 [8] (setting [13]) were 4 µM, 4.5 µM and 4.9 µM, respectively. The “Effect on reaction kinetics / Hill coefficient (Hn)” value on recombinant SAMHD1 [9] was “significantly increased hill coefficients”.
As to `Nc1nc2c(ncn2[C@H]2C[C@H](O)[C@@H](COP(O)(=S)OP(=O)(O)OP(=O)(O)O)O2)c(=O)[nH]1` (stereo partly drawn) [dGTPαS, reference compound], the Tm3 at recombinant SAMHD1 [4] (SAMHD1 melting temperature with dGTPαS up to 1 mM) is approximately 70 °C.
In the case of `Cc1cn([C@H]2C[C@H](O)[C@@H](CO)O2)c(=O)[nH]c1=O` [thymidine, Thymidine], the “SAMHD1 stabilization against heat, intact cells” value in test [10] is reported as “substantially stabilized SAMHD1”.
On to `c1ccc(CCNc2nc(-c3cccs3)cn3ccnc23)nc1` [TH7528, N-(2-(pyridin-2-yl)ethyl)-6-(thiophen-2-yl)imidazo[1,2-a]pyrazin-8-amine], for which the “Selectivity for SAMHD1 versus panel” value in test [3] is “selectively inhibited SAMHD1”. The “Effect on SAMHD1 thermal stability / Tm1” value on recombinant SAMHD1 [4] is “small concentration-dependent reduction in Tm1”. Besides, the “Inhibition of SAMHD1 activity” value at recombinant SAMHD1 [7] (Mn2+) was “retained their inhibitory activities”. Further, the IC50 on recombinant SAMHD1 [8] (setting [11]) worked out at 2.6 µM; at recombinant SAMHD1 [8] (setting [12]) it was 2.8 µM; on recombinant SAMHD1 [8] (setting [13]) it was 4.5 µM. The “Effect on reaction kinetics / Hill coefficient (Hn)” value at recombinant SAMHD1 [9] is “significantly increased hill coefficients”.
For the compound `Nc1ccccc1-c1cn2ccnc2c(NCCc2ccccn2)n1` [TH7126, 6-(2-aminophenyl)-N-(2-(pyridin-2-yl)ethyl)imidazo[1,2-a]pyrazin-8-amine], on recombinant SAMHD1 [4], the “Effect on SAMHD1 thermal stability / Tm1” value is reported as “did not alter SAMHD1 thermal stability”. For the same compound, the “Effect … (Tm1 transition)” value at recombinant SAMHD1 [4] is “did not disrupt SAMHD1 dimerization”. The “Inhibition of SAMHD1 activity” value at recombinant SAMHD1 [7] (Mn2+) was “minimal inhibition”. The “Inhibition of SAMHD1 (in words)” value at recombinant SAMHD1 [8] (dGTP, ara-CTP and Cl-F-ara-ATP substrates) was “Neg. control; also recorded: minimal inhibition”. Further, the IC50 on recombinant SAMHD1 [8] (setting [11]), at recombinant SAMHD1 [8] (setting [12]) and at recombinant SAMHD1 [8] (setting [13]) was more than 100 µM throughout. In addition, at recombinant SAMHD1 [9], the “Effect on reaction kinetics / Hill coefficient (Hn)” value is “did not alter the reaction kinetics”.
